What was measured:
[1] = tested on: Human immunodeficiency virus 1; experiment: Antiviral activity against HIV-1 YU-2 infected in human TZM-bl cells measured after 48 hrs incubation by luciferase based analysis; type: functional, organism-based; conditions: Human immunodeficiency virus 1, YU-2, TZM-bl, 48 h
[2] = tested on: Human immunodeficiency virus 1; experiment: Antiviral activity against HIV-1 KIZ006 clinical isolate infected in human PBMC measured after 48 hrs incubation by luciferase based analysis; type: functional, organism-based; conditions: Human immunodeficiency virus 1, KIZ006, PBMC
[3] = in vitro; conditions: human, HOS-CD4-CCR5 cells
Description: Therapeutic index, ratio of CC50 for human HOS-CD4-CCR5 cells to EC50 for antiviral activity against HIV-1 Ba-L

[4] = biological target: C-C chemokine receptor type 5 (Homo sapiens, UniProt P51681); experiment: Antagonist activity at CCR5 (unknown origin) expressed in HEK293 cells co-expressing Galpha16 assessed as intracellular calcium change incubated for 15 mins by Fluo-4 AM calcium flux assay; type: functional, cell-based
[5] = MRT in Sprague-Dawley rat at 10 mg/kg, po measured upto 24 hrs; type: ADME, organism-based; conditions: in vivo
[6] = in vitro; conditions: human, TZM-bl cells
Description: Therapeutic index, ratio of CC50 for human TZM-bl cells to EC50 for antiviral activity against HIV-1 Ba-L

[7] = MRT in Sprague-Dawley rat at 2 mg/kg, iv measured upto 24 hrs; type: ADME, organism-based; conditions: Sprague-Dawley, in vivo, read-out: MRT
[8] = in vitro; conditions: human, PBMC
Description: Therapeutic index, ratio of CC50 for human PBMC to EC50 for antiviral activity against HIV-1 KIZ001 clinical isolate

[9] = Cytotoxicity against human PM1 cells incubated for 48 hrs by MTT assay; type: toxicity, cell-based
[10] = Cytotoxicity against human HOS-CD4-CCR5 cells incubated for 48 hrs by MTT assay; type: toxicity, cell-based
[11] = tested on: Human immunodeficiency virus 1; experiment: Antiviral activity against HIV-1 YU-2 (G140S/Q148H) infected in human TZM-bl cells measured after 48 hrs incubation by luciferase based analysis; type: functional, organism-based; conditions: Human immunodeficiency virus 1, YU-2 (G140S/Q148H)
[12] = AUC (0 to last) in Sprague-Dawley rat at 2 mg/kg, iv measured upto 24 hrs; type: ADME, organism-based; design: dose 2 mg/kg, time < 24 hrs, route iv; conditions: in vivo, 24 h
[13] = tested on: Human immunodeficiency virus 1; experiment: Antiviral activity against HIV-1 Ba-L infected in human PM1 cells measured after 48 hrs incubation by ELISA based p24 antigen assay; type: functional, organism-based; conditions: Human immunodeficiency virus 1, Ba-L, PM1, 48 h
[14] = tested on: Human immunodeficiency virus 1; experiment: Synergistic antiviral activity against HIV-1 Ba-L infected in human TZM-bl cells assessed as combination index in presence of emtricitabine; type: functional
[15] = biological target: T1, Cytochrome P450 1A2 (Homo sapiens, UniProt P05177); experiment: Inhibition of CYP1A2 (unknown origin); type: ADME
T1 sequence (P05177 whole entry): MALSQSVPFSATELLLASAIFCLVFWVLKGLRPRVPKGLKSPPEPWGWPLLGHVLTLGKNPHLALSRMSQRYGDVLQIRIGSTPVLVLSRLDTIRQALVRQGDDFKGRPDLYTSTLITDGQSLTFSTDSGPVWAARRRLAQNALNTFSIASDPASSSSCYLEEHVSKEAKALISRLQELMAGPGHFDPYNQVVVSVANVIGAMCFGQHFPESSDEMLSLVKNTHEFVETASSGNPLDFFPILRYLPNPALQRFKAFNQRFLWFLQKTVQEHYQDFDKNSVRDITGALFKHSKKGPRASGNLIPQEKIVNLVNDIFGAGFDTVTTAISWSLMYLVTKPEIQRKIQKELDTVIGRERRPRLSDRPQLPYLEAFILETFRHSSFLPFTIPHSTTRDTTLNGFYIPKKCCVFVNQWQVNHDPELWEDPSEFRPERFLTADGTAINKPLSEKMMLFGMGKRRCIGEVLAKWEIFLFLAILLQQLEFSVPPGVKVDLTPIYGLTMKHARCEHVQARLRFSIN

[16] = tested on: Human immunodeficiency virus 1; experiment: Synergistic antiviral activity against HIV-1 Ba-L infected in human TZM-bl cells assessed as combination index in presence of dolutegravir; type: functional
[17] = Cytotoxicity against human PBMC cells incubated for 48 hrs by MTT assay; type: toxicity, cell-based
[18] = biological target: T2, Cytochrome P450 3A4 (Homo sapiens, UniProt P08684); experiment: Inhibition of CYP3A4 (unknown origin) using midazolam as substrate; type: ADME
[19] = in vitro; conditions: human, PM1 cells
Description: Therapeutic index, ratio of CC50 for human PM1 cells to EC50 for antiviral activity against HIV-1 Ba-L

[20] = AUC (0 to last) in Sprague-Dawley rat at 10 mg/kg, po measured upto 24 hrs; type: ADME, organism-based; design: dose 10 mg/kg, time < 24 hrs, route po; conditions: in vivo
[21] = tested on: Human immunodeficiency virus 1; experiment: Antiviral activity against HIV-1 SF162 infected in human TZM-bl cells measured after 48 hrs incubation by luciferase based analysis; type: functional, organism-based; conditions: Human immunodeficiency virus 1, SF162, TZM-bl
[22] = Tmax in Sprague-Dawley rat at 10 mg/kg, po measured upto 24 hrs; type: ADME, organism-based; conditions: in vivo
[23] = tested on: Human immunodeficiency virus 1; experiment: Antiviral activity against HIV-1 KIZ001 clinical isolate infected in human PBMC measured after 48 hrs incubation by luciferase based analysis; type: functional, organism-based; conditions: Human immunodeficiency virus 1, KIZ001, PBMC
[24] = Cmax in Sprague-Dawley rat at 10 mg/kg, po measured upto 24 hrs; type: ADME, organism-based; design: time < 24 hrs, dose 10 mg/kg, route po; conditions: in vivo
[25] = in vitro; conditions: human, PBMC; remark: listed apart in the source
Description: Therapeutic index, ratio of CC50 for human PBMC to EC50 for antiviral activity against HIV-1 KM018 clinical isolate

[26] = in vitro; conditions: human, PM1 cells; remark: listed apart in the source
Description: Therapeutic index, ratio of CC50 for human PM1 cells to EC50 for antiviral activity against HIV-1 SF162

[27] = Cytotoxicity against human TZM-bl cells incubated for 48 hrs by MTT assay; type: toxicity, cell-based
[28] = tested on: Human immunodeficiency virus 1; experiment: Synergistic antiviral activity against HIV-1 Ba-L infected in human TZM-bl cells assessed as combination index in presence of etravirine; type: functional
[29] = Oral bioavailability in Sprague-Dawley rat at 10 mg/kg measured upto 24 hrs; type: ADME, organism-based; conditions: in vivo, po, 10 mg/kg, 24 h
[30] = in vitro; conditions: human, PM1 cells; remark: listed apart in the source
Description: Therapeutic index, ratio of CC50 for human PM1 cells to EC50 for antiviral activity against HIV-1 YU-2

[31] = tested on: Human immunodeficiency virus 1; experiment: Synergistic antiviral activity against HIV-1 Ba-L infected in human TZM-bl cells assessed as combination index in presence of zidovudine; type: functional
[32] = Half life in Sprague-Dawley rat at 10 mg/kg, po measured upto 24 hrs; type: ADME, organism-based; conditions: in vivo
[33] = in vitro; conditions: human, PBMC; remark: listed apart in the source
Description: Therapeutic index, ratio of CC50 for human PBMC to EC50 for antiviral activity against HIV-1 KIZ006 clinical isolate

[34] = AUC (0 to infinitive) in Sprague-Dawley rat at 2 mg/kg, iv measured upto 24 hrs; type: ADME, organism-based; design: dose 2 mg/kg, time < 24 hrs, route iv; conditions: in vivo, 24 h
[35] = tested on: Human immunodeficiency virus 1; experiment: Synergistic antiviral activity against HIV-1 Ba-L infected in human TZM-bl cells assessed as combination index in presence of efavirenz; type: functional
[36] = tested on: Human immunodeficiency virus 1; experiment: Antiviral activity against HIV-1 Ba-L infected in human HOS-CD4-CCR5 cells measured after 48 hrs incubation by ELISA based p24 antigen assay; type: functional, organism-based; conditions: Human immunodeficiency virus 1, Ba-L
[37] = tested on: Human immunodeficiency virus 1; experiment: Synergistic antiviral activity against HIV-1 Ba-L infected in human TZM-bl cells assessed as combination index in presence of T-20; type: functional
[38] = biological target: Cytochrome P450 2D6 (Homo sapiens, UniProt P10635); experiment: Inhibition of CYP2D6 (unknown origin); type: ADME
[39] = Half life in Sprague-Dawley rat at 2 mg/kg, iv measured upto 24 hrs; type: ADME, organism-based; conditions: Sprague-Dawley, in vivo
[40] = tested on: Human immunodeficiency virus 1; experiment: Synergistic antiviral activity against HIV-1 Ba-L infected in human TZM-bl cells assessed as combination index in presence of lamivudine; type: functional
[41] = AUC (0 to infinitive) in Sprague-Dawley rat at 10 mg/kg, po measured upto 24 hrs; type: ADME, organism-based; design: dose 10 mg/kg, time < 24 hrs, route po; conditions: in vivo, 24 h
[42] = biological target: T2, Cytochrome P450 3A4; experiment: Inhibition of CYP3A4 (unknown origin) using testosterone as substrate; type: ADME
[43] = tested on: Human immunodeficiency virus 1; experiment: Antiviral activity against HIV-1 IIIB infected in human TZM-bl cells measured after 48 hrs incubation by luciferase based analysis; type: functional, organism-based; conditions: Human immunodeficiency virus 1, IIIB
[44] = tested on: Human immunodeficiency virus 1; experiment: Synergistic antiviral activity against HIV-1 Ba-L infected in human TZM-bl cells assessed as combination index in presence of indinavir; type: functional
[45] = tested on: Human immunodeficiency virus 1; experiment: Synergistic antiviral activity against HIV-1 Ba-L infected in human TZM-bl cells assessed as combination index in presence of raltegravir; type: functional
[46] = biological target: Cytochrome P450 2C19 (Homo sapiens, UniProt P33261); experiment: Inhibition of CYP2C19 (unknown origin); type: ADME
[47] = tested on: Human immunodeficiency virus 1; experiment: Antiviral activity against HIV-1 KM018 clinical isolate infected in human PBMC measured after 48 hrs incubation by luciferase based analysis; type: functional, organism-based; conditions: Human immunodeficiency virus 1, KM018, PBMC
[48] = tested on: Human immunodeficiency virus 1; experiment: Antiviral activity against HIV-1 Ba-L infected in human TZM-bl cells measured after 48 hrs incubation by luciferase based analysis; type: functional, organism-based; conditions: Human immunodeficiency virus 1, Ba-L
[49] = tested on: Human immunodeficiency virus 1; experiment: Synergistic antiviral activity against HIV-1 Ba-L infected in human TZM-bl cells assessed as combination index in presence of nevirapine; type: functional
[50] = biological target: Cytochrome P450 2C9 (Homo sapiens, UniProt P11712); experiment: Inhibition of CYP2C9 (unknown origin); type: ADME
[51] = tested on: Human immunodeficiency virus 1; experiment: Synergistic antiviral activity against HIV-1 Ba-L infected in human TZM-bl cells assessed as combination index in presence of tenofovir; type: functional

T2 sequence (P08684 whole entry): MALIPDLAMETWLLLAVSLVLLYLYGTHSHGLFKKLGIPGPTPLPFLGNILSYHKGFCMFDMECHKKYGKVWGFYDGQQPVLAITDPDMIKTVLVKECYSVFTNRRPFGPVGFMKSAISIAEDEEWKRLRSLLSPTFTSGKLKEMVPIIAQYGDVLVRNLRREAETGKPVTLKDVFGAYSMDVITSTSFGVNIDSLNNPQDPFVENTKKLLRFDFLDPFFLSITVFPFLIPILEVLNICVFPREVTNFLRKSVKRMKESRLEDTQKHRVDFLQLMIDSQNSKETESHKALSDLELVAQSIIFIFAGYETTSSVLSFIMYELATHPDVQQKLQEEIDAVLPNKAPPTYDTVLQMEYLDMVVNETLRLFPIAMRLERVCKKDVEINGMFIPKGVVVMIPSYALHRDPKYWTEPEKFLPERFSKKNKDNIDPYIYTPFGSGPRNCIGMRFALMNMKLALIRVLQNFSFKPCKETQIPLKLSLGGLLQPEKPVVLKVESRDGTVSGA
Sequence of Cytochrome P450 2D6 (P10635 whole entry): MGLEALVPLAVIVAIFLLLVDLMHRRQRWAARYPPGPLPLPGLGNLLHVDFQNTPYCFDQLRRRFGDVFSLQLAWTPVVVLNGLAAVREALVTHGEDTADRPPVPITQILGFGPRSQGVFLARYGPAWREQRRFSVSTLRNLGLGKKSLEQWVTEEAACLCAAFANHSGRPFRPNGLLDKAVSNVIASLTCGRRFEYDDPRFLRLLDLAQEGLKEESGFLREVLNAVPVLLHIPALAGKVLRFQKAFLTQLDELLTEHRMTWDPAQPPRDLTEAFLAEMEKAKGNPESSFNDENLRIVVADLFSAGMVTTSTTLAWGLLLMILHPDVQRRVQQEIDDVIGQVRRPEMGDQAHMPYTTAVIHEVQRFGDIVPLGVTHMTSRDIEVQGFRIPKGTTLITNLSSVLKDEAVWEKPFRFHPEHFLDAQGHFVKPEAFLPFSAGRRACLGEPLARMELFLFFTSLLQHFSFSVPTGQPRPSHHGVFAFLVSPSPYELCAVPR
Sequence of C-C chemokine receptor type 5 (P51681 whole entry): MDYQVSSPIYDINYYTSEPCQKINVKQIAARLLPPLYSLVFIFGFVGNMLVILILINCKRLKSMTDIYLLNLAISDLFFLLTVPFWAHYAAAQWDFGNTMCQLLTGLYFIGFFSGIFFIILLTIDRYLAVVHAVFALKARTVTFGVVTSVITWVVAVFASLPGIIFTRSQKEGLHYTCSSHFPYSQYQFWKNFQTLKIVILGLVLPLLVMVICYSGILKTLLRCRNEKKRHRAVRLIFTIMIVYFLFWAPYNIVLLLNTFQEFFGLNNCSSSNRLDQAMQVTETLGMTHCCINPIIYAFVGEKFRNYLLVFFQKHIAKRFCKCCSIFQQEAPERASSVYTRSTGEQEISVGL
Sequence of Cytochrome P450 2C19 (P33261 whole entry): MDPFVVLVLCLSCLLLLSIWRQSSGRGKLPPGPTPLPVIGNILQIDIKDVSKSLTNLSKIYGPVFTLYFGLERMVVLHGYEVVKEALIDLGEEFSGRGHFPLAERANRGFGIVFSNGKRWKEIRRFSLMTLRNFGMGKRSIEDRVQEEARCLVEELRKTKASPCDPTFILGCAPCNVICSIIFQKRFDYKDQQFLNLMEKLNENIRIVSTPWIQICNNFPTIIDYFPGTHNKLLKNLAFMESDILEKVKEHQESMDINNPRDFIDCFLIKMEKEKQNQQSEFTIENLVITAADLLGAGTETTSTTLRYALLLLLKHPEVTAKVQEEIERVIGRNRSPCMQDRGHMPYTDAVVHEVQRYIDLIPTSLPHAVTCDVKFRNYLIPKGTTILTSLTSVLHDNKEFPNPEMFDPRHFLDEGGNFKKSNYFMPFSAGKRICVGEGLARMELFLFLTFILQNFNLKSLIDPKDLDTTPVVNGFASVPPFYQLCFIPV
Sequence of Cytochrome P450 2C9 (P11712 whole entry): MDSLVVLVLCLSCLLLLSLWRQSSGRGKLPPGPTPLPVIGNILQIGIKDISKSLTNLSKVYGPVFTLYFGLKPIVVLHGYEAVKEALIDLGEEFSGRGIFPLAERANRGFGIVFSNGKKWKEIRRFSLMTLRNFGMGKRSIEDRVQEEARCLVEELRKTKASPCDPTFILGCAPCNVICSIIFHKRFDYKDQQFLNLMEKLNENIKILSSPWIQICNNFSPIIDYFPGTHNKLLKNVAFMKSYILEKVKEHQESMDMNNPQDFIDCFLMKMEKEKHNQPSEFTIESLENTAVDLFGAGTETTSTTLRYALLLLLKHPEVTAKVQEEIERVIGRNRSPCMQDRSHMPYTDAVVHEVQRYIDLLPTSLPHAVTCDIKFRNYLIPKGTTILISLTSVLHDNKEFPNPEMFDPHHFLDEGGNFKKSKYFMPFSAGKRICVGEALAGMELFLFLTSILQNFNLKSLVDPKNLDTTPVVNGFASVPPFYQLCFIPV

With CC(=O)N1CCc2c(nc(C)n2[C@@H]2C[C@H]3CC[C@@H](C2)N3CC[C@H](NC(=O)C2CCC(F)(F)CC2)c2ccsc2)C1 the EC50 [1] was 2.89 nM, the EC50 [2] was 19 nM and the selectivity ratio [3] was over 30300. For the same compound, the IC50 [4] was 15.9 nM, the MRT [5] was 9.16 h and the selectivity ratio [6] was over 20000. It also gave an MRT [7] of 9.16 h, a selectivity ratio [8] of 19500 and a CC50 at 48 h [9] of over 200000 nM. The CC50 at 48 h [10] was over 200000 nM, the EC50 [11] was 2.71 nM and the AUC [12] was 270 ng·h/mL. It also gave an EC50 [13] of 0.29 nM, a CI [14] of 0.44 and an IC50 [15] of over 25000 nM. The CI [16] was 0.5, the CC50 at 48 h [17] was 103000 nM and the IC50 [18] was over 25000 nM. It also gave a selectivity ratio [19] of over 69000, an AUC(0-t) at 24 h [20] of 270 ng·h/mL and an EC50 [21] of 7.64 nM. It also gave a Tmax [22] of 2.67 h, an EC50 [23] of 5.26 nM and a Cmax [24] of 66.4 ng/mL. For the same compound, the selectivity ratio [25] was 4400, the selectivity ratio [26] was over 26200 and the CC50 at 48 h [27] was over 200000 nM. The CI [28] was 0.75, the F [29] was 11.9% and the selectivity ratio [30] was over 69200. It also gave a CI [31] of 0.6, a half-life [32] of 6.44 h and a selectivity ratio [33] of 5390. For the same compound, the AUC [34] was 3.44 ng·h/mL, the CI [35] was 0.85 and the EC50 [36] was 0.66 nM. It also gave a CI [37] of 0.33, an IC50 [38] of over 25000 nM and a half-life [39] of 3.34 h. For the same compound, the CI [40] was 0.69, the AUC [41] was 270 ng·h/mL and the IC50 [42] was over 25000 nM. It also gave an EC50 [43] of over 1000 nM, a CI [44] of 0.95 and a CI [45] of 0.46. The IC50 [46] was over 25000 nM, the EC50 [47] was 23.3 nM and the EC50 [48] was 10 nM. The CI [49] was 0.41, the IC50 [50] was over 25000 nM and the CI [51] was 0.47.
